From patent US12686668B2, “Leukotriene synthesis inhibitors” (Naegis Pharmaceuticals Inc., priority 2019, dated 2026)
Like-named read-outs stand apart in the source and are kept apart here.

Legend:
[1] = system: LTC4 production in MC/9 cells; assay: MC/9 HPLC assay, inhibition of LTC4 production; format: cell-based; conditions: Mus musculus; for inhibition at 3 µM: MC9, 3 μM, A23187 stimulated
Method in brief: (§1)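 MC/9 cells (3×10^6 in HBSS) pre-incubated 30 min with compound, then stimulated 20 min at room temperature with 1 μM A23187. After methanol quench and C18 solid-phase extraction, LTB4 and LTC4 quantified by HPLC against reference standards; inhibition relative to control samples.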

[2] = system: LTB4 production in MC/9 cells; assay: MC/9 HPLC assay, inhibition of LTB4 production; format: cell-based; conditions: Mus musculus
Method in brief: as §1

[3] = system: LTB4 production in porcine or human whole blood; assay: Whole blood HPLC assay, inhibition of LTB4 production; format: cell-based; conditions: 5 point curve, porcine or human whole blood (not specified)
Method in brief: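 Porcine or human whole blood was pre-incubated 30 min with compound, then stimulated 20 min at room temperature with 20 μM A23187 (porcine blood also received 20 μM arachidonic acid). Plasma LTB4 was extracted on C18 and quantified by HPLC against reference standards. IC50 from a 5-point curve, with inhibition relative to controls.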

AA-induced ear edema = assay: Arachidonic acid (AA) induced mouse ear edema model; format: in vivo, CD-1 mice; conditions: 4 hrs and 1 hr before AA 2 mg/ear, mice; for % Inhibition AA-Induced ear edema (0.3 mg/ear): topical 0.3 mg/ear; for % Inhibition AA-Induced ear edema (1 mg/ear): topical 1 mg/ear
Method: One group serves as a control and receives 20 μL of vehicle applied to the pinna of each ear (10 μL to the inside and 10 μL to the outside of the pinna). One or more additional groups serve as test groups. The test compound was applied to the pinna of one ear of the mouse in a 20 μL volume (10 μL to the inside and 10 μL to the outside of the pinna). Test compound or control vehicle (acetone/1% DMSO) was applied topically to the right ear 4 and 1 hour before the application of 2 mg/ear AA as a stimulus to both the inner and outer surfaces of CD-1 mice. The left ears received vehicle (acetone/1% DMSO) alone. The animal was lightly anesthetized again using isofluorane to enable application of the stimulus. For the control group, arachidonic acid (2 mg/ear) was applied as the stimulus to the pinna of one ear only, in a total volume of 20 μL of acetone (10 μL applied to the inside and 10 μL to the outside of the pinna). The other ear received 20 μL of acetone. This served to determine the increase in ear weight due to arachidonic acid in the absence of test compounds. For the test groups, arachidonic acid (2 mg/ear) was applied as the stimulus to the pinna of each ear, in a total volume of 20 μL of acetone (10 μL applied to the inside and 10 μL to the outside of the pinna). The animal was allowed to recover after application of the stimulus in each case. After 60 minutes the animal was euthanized and a standard biopsy sample was taken from each ear using a 6 mm skin biopsy punch (Acuderm). Ear edema was determined by the increase in weight of the tissue due to accumulation of fluid as a result of plasma extravasation. The ears were weighed separately using a balance suitable to record 0.1 mg. For the control group, the difference in ear weights was determined by subtracting the weight of the unstimulated ear from the stimulated ear, and this was a measure of the increase in ear weight due to edema. The percentage increase in ear weight was determined by dividing the increase in stimulated ear weight by the unstimulated ear weight and multiplying by 100. For the test groups, the difference in ear weights was determined by subtracting the weight of the untreated ear from the weight of the ear treated with test compound. The percent inhibition of the increase in ear weight for ears treated with the test compound was estimated by first subtracting the mean ear weight of the untreated controls from each tissue to determine the increase in tissue weight due to application of the arachidonic acid. The percent inhibition=1−(test drug stimulated ear (mg)/control stimulated ear (mg))×100. In Table 5, the data from inhibition of AA-induced ear edema in mice by topical application of compounds is provided. Compounds (0.3 or 1 mg/ear) were applied topically to the ear 4 hrs and 1 hr prior to application of arachidonic acid (AA; 2 mg/ear).

[4] = MC9, Table 2 column 3, no concentration in head (1 μM according to b732), read-out: % Inhibition LTC4
[5] = MC9, Table 2 column 4, no concentration in head (1 μM according to b732), read-out: % Inhibition LTB4

Row | IC50 [3] [nM] | SMILES | inhibition at 1 µM ([1]; MC9, 1 μM, read-out: % inhibition LTC4 (1 μM)) [%] | inhibition at 3 µM [1] [%] | inhibition at 1 µM [1, 4] [%] | inhibition at 1 µM ([2]; MC9, 1 μM, read-out: % inhibition LTB4 (1 μM)) [%] | inhibition at 1 µM [2, 5] [%] | % Inhibition AA-Induced ear edema (0.3 mg/ear) (AA-induced ear edema) | % Inhibition AA-Induced ear edema (1 mg/ear) (AA-induced ear edema)
1 | 100 to 1000 | CCC(O)(CCc1ccc(Oc2nc3c(SC)cccc3s2)c(OC)c1)C(F)(F)F (centres unmarked) [Compound 104, 1-{3-methoxy-4-[(4-methylsulfanyl-1,3-benzothiazol-2-yl)oxy]phenyl}-3-(trifluoromethyl)pentan-3-ol] | 90 | > 90 | > 90 | 90 | > 90 | 30-50% | 50-70%
2 | 100 to 1000 | CC(O)(CCc1ccc(OCc2ccc3ccccc3n2)cc1)C(F)(F)F (centres unmarked) [Compound 183, 1,1,1-trifluoro-2-methyl-4-[4-(quinolin-2-ylmethoxy)phenyl]butan-2-ol] | – | > 90 | > 90 | – | > 90 | 30-50% | >90%
